Measurements as given in ChEMBL document CHEMBL1140189, “Lignans from the roots of Saururus chinensis” (J Nat Prod, 2008).

What was measured:
Type in all cases: functional, cell-based
[1] = test system: HepG2; assay: Cytotoxicity against human HEPG2 cells by MTT assay
[2] = test system: MCF7; assay: Cytotoxicity against human MCF7 cells by MTT assay
[3] = test system: HT-29; assay: Cytotoxicity against human HT29 cells by MTT assay

SMILES | IC50 [1] | IC50 [2] | IC50 [3]
CC(Cc1cc2c(cc1O)OCO2)C(C)C(=O)c1ccc2c(c1)OCO2 (stereo not drawn) [SAUCERNEOL G] | 62 µM | 64 µM | 55 µM
CC[C@@]1(O)C(=O)OCc2c1cc1n(c2=O)Cc2cc3ccccc3nc2-1 [CAMPTOTHECIN] | 0.3 µM | 10 µM | 2 µM
C[C@@H]([C@H](C)[C@H](O)c1ccc2c(c1)OCO2)[C@H](O)c1ccc2c(c1)OCO2 [SAUCERNEOL I] | > 100 µM | > 100 µM | 21 µM
COc1cc([C@H]2O[C@H](c3ccc4c(c3)OCO4)[C@H](C)[C@H]2C)ccc1O[C@H](C)[C@@H](O)c1ccc2c(c1)OCO2 [SAUCERNEOL F] | 11 µM | > 100 µM | 10 µM
COc1ccc([C@H](O)[C@@H](C)Oc2ccc([C@H]3O[C@H](c4ccc5c(c4)OCO5)[C@H](C)[C@H]3C)cc2OC)cc1OC [SAUCERNEOL D] | 16 µM | > 100 µM | 13 µM
CC(Cc1cc2c(cc1O)OCO2)[C@@H](C)[C@H](O)c1ccc2c(c1)OCO2 (single isomer, unassigned) [SAUCERNEOL H] | 61 µM | 72 µM | 53 µM
